{
  "source": "patent US20040034086A1",
  "about": "“Combination of an allosteric inhibitor of matrix metalloproteinase-13 with celecoxib or valdecoxib” (priority 2002, published 2004)",
  "origin": "cited, not measured here",
  "data": [
    {"smiles": "Cc1onc(-c2ccccc2)c1-c1ccc(S(N)(=O)=O)cc1", "note": "[valdecoxib, 4-(5-methyl-3-phenyl-4-isoxazolyl)-benzenesulfonamide]", "values": [
      {"measurement": "Tolerability in clinical studies", "setting": "combined analysis of various clinical studies", "result": "well tolerated"},
      {"measurement": "Overall upper gastrointestinal safety profile (ulcers, perforations, obstructions and GI bleeds)", "setting": "compared with conventional NSAIDs such as ibuprofen, diclofenac and naproxen", "result": "significantly better than the conventional NSAIDs studied"}
    ]}
  ]
}
